From US4317912A, “Tetracyclic indole derivatives” (Farmitalia Carlo Erba S.p.A., priority 1979, dated 1982)

Columns and labels:
[1] = tested on: spontaneously hypertensive male rats, strain MHS; assay: Anti-hypertensive activity in spontaneously hypertensive rats (MHS), blood pressure and heart rate measured at the tail; type: in vivo, rat (spontaneously hypertensive; details: for Change in BP, 1st day, 1 hr after dose / Change in HR, 1st day, 1 hr after dose / Change in BP, 1st day, 5 hrs after dose / Change in HR, 1st day, 5 hrs after dose / Change in BP, 4th day, 1 hr after dose / Change in HR, 4th day, 1 hr after dose / Change in BP, 4th day, 5 hrs after dose / Change in HR, 4th day, 5 hrs after dose: mean of 4 animals
Procedure: Four spontaneously hypertensive male rats, strains MHS, weighing 250-300 g for each group were used.
The animals were treated for four consecutive days. Drugs were administered by gastric gavage, suspended in 5% arabic gum (0.2 ml/100 g body weight). Blood pressure (BP) and heart rate (HR) were measured at the tail by BP Recorder W+W. Blood pressure and heart rate were measured on the 1st and 4th day of treatment 1 hour before and 1 and 5 hours after drug administration.
*Data of LD50 from the literature. In Tables 1 and 2 are reported
the results of the study of the activity of compounds 355/1165 and
355/1166 upon the BP and HR (measured indirectly by means of a tail cuff)
of spontaneous hypertensive rats, MHS strain (4 rats each group). The
compounds were given orally, once a day for 4 consecutive days.

[2] = tested on: spontaneously hypertensive rats (Okamoto strain); assay: Anti-hypertensive activity in conscious spontaneously hypertensive rats (Okamoto), carotid artery catheter; type: in vivo, rat (spontaneously hypertensive
Procedure: Blood pressure recordings were made in conscious hypertensive unrestrained rats weighing approximately 300 g, via a catheter cronically inserted into the left common carotid artery. Implantation of arterial cannula was made under sodium pentobarbital anesthesia (50 mg/kg i.p.). A 1 cm long incision was made through the previously shaved ventral surface of the neck and the tissues overlying the trachea parted by blunt dissection to reveal the carotid artery. The polyethylene catheter used was made with PE 50 tubing, previously filled with saline containing 250 I.U./ml heparin. The tip of the cannula was pushed at least 2 cm inside the vessel toward the heart. The cannula was then firmly tied and passed beneath the skin to emerge from a small incision in the back of the neck. During the postoperative period and before the start of each recording session, the cannula was flushed through daily with saline containing heparin (250 U.I./ml). The experiments were performed two days after surgery. Drugs were administered by gastric gavage.

[3] = Acute (orientative) oral toxicity in mice; details: mouse, in vivo
Description: The male mice for each group were orally treated with drugs at different dose levels for the determination of orientative toxicity.

[4] = MHS rats, 0.5 mg/kg os, 1st day
[5] = MHS rats, 0.5 mg/kg os, 4th day
[6] = 1 mg/kg os, 30', mean of 6 animals
[7] = 1 mg/kg os, 60', mean of 6 animals
[8] = 1 mg/kg os, 120', mean of 6 animals
[9] = 1 mg/kg os, 240', mean of 6 animals
[10] = 1 mg/kg os, 360', mean of 6 animals

CN1CC(CC(C#N)C(N)=O)C2Cc3cccc4[nH]cc(c34)CC21 (stereo not drawn) [355/1165, 2-Cyano-3-[trans-5(10→9)abeo-6-methyl-ergoline-8β]-propionamide]
Change in BP, 1st day, 1 hr after dose [1, 4]: -13 mmHg | Change in HR, 1st day, 1 hr after dose [1, 4]: -25 b/min | Change in BP, 1st day, 5 hrs after dose [1, 4]: -17 mmHg | Change in HR, 1st day, 5 hrs after dose [1, 4]: -25 b/min | Change in BP, 4th day, 1 hr after dose [1, 5]: -17 mmHg | Change in HR, 4th day, 1 hr after dose [1, 5]: -30 b/min | Change in BP, 4th day, 5 hrs after dose [1, 5]: -3 mmHg | Change in HR, 4th day, 5 hrs after dose [1, 5]: -35 b/min | Change in BP, 1st day, 1 hr after dose ([1]; MHS rats, 1 mg/kg os, 1st day): -15 mmHg | Change in HR, 1st day, 1 hr after dose ([1]; MHS rats, 1 mg/kg os, 1st day): -20 b/min | Change in BP, 1st day, 5 hrs after dose ([1]; MHS rats, 1 mg/kg os, 1st day): -19 mmHg | Change in HR, 1st day, 5 hrs after dose ([1]; MHS rats, 1 mg/kg os, 1st day): -15 b/min | Change in BP, 4th day, 1 hr after dose ([1]; MHS rats, 1 mg/kg os, 4th day): -30 mmHg | Change in HR, 4th day, 1 hr after dose ([1]; MHS rats, 1 mg/kg os, 4th day): -27 b/min | Change in BP, 4th day, 5 hrs after dose ([1]; MHS rats, 1 mg/kg os, 4th day): -42 mmHg | Change in HR, 4th day, 5 hrs after dose ([1]; MHS rats, 1 mg/kg os, 4th day): -20 b/min | Change in BP, 1st day, 1 hr after dose ([1]; MHS rats, 2 mg/kg os, 1st day): -25 mmHg | Change in HR, 1st day, 1 hr after dose ([1]; MHS rats, 2 mg/kg os, 1st day): -47 b/min | Change in BP, 1st day, 5 hrs after dose ([1]; MHS rats, 2 mg/kg os, 1st day): -53 mmHg | Change in HR, 1st day, 5 hrs after dose ([1]; MHS rats, 2 mg/kg os, 1st day): -80 b/min | Change in BP, 4th day, 1 hr after dose ([1]; MHS rats, 2 mg/kg os, 4th day): -33 mmHg | Change in HR, 4th day, 1 hr after dose ([1]; MHS rats, 2 mg/kg os, 4th day): -48 b/min | Change in BP, 4th day, 5 hrs after dose ([1]; MHS rats, 2 mg/kg os, 4th day): -45 mmHg | Change in HR, 4th day, 5 hrs after dose ([1]; MHS rats, 2 mg/kg os, 4th day): -55 b/min | Effect on BP ([1]; MHS rats, 0.5, 1 and 2 mg/kg per os, 1st and 4th day): significantly lowers BP on the 1st and 4th day after the treatment | Antihypertensive activity compared with Hydralazine, 1st day ([1]; MHS rats, 1st day, 355/1165 2 mg/kg, 355/1226 3 mg/kg per os vs Hydralazine 3 mg/kg per os): more marked antihypertensive activity | Antihypertensive effect compared with Hydralazine, 4th day ([1]; MHS rats, 4th day, 355/1165 2 mg/kg, 355/1226 3 mg/kg per os vs Hydralazine 3 mg/kg per os): even greater effect | Tolerance after repeated administration ([1]; MHS rats, four days, 355/1165 2 mg/kg, 355/1226 3 mg/kg, 355/1225 and 355/1229 5 mg/kg per os): tolerance does not occur after repeated administration | Activity compared with α-methyl-DOPA ([1]; MHS rats, 355/1165 2 mg/kg, 355/1226 3 mg/kg per os): 50 times | Change in blood pressure after treatment, 30' [2, 6]: -21 mmHg | Change in heart rate after treatment, 30' [2, 6]: -25 b/min | Change in blood pressure after treatment, 60' [2, 7]: -29 mmHg | Change in heart rate after treatment, 60' [2, 7]: -45 b/min | Change in blood pressure after treatment, 120' [2, 8]: -33 mmHg | Change in heart rate after treatment, 120' [2, 8]: -52 b/min | Change in blood pressure after treatment, 240' [2, 9]: -26 mmHg | Change in heart rate after treatment, 240' [2, 9]: -8 b/min | Change in blood pressure after treatment, 360' [2, 10]: -23 mmHg | Change in heart rate after treatment, 360' [2, 10]: +18 b/min | Activity compared with hydralazine ([2]; 1 mg/kg per os): 3 times | Hypotensive activity ([2]; 1 mg/kg per os): marked and long lasting hypotensive activity | Effect on heart rate ([2]; oral (Table 4)): slight bradycardia and never tachicardia | LD50 at 168 h [3]: > 1000 mg/kg
